These results are taken from article PMC8599861, “Structures of prokaryotic ubiquitin-like protein Pup in complex with depupylase Dop reveal the mechanism of catalytic phosphate formation” (Nature Communications, 2021).

Experiment [1] deals with T1, AcelDop (in complex with AcelPup deltaN43) (Acidothermus cellulolyticus, UniProt A0LU48).
T1 construct: gene dop; C-terminal TEV-His6 tag cleaved, E. coli Rosetta (DE3); Pup fragment deltaN43 (PupQ, PupE or PupBSO) synthetic; with Prokaryotic ubiquitin-like protein Pup
The experiment is described as follows: intact mass spectrometry of phosphorylated PupBSO. The following applies: 2 mM ATP, PupBSO deltaN43 as phosphoryl acceptor, 20 mM MgCl2, pH 8.0, 30 C. In kind it is biochemical.

In experiment [2] the target is T1, AcelDop (in complex with AcelPup deltaN43). The experiment is described as follows: X-ray crystal structures, […]-1.[…] A. Type of experiment: binding. The following applies: with PupE deltaN43 and MgF3(H2O)- (7OYF), phosphorylated PupE, Mg2+/K+ (7OY3; ADP formed in crystal soaked with ATP) or MgF4 2- (7OYH); nucleotide site.
Experiment [3] shares this target. The experiment is described as follows: X-ray crystal structure, […] A. Type of experiment: binding. The following applies: co-crystal with PupQ deltaN43 and Mg2+; nucleotide site, about 72 % occupancy.

T1 sequence (A0LU49 44-71 E71Q): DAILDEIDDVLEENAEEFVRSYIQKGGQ
T1 sequence (A0LU48 whole entry, the tested form may be a part): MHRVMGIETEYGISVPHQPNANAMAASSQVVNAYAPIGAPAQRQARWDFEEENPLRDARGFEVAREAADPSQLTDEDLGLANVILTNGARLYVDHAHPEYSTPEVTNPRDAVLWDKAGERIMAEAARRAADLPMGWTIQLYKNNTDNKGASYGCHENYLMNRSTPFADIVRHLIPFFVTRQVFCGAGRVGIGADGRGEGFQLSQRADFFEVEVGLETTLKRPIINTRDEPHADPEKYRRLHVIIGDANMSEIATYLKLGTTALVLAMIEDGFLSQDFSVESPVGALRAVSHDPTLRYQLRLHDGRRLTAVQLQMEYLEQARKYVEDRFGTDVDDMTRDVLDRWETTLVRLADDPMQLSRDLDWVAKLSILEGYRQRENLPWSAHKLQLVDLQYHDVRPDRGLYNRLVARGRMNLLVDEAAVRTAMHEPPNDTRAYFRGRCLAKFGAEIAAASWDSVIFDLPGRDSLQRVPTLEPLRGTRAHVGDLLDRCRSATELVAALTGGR

As for `Nc1ncnc2c1ncn2[C@@H]1O[C@H](COP(=O)(O)OP(=O)(O)OP(=O)(O)O)[C@@H](O)[C@H]1O` [ATP], the “intact mass spectrometry of phosphorylated PupBSO” value in experiment [1] was “Dop indeed forms a phosphorylated PupBSO species in the presence of ATP”. Consider `Nc1ncnc2c1ncn2[C@@H]1O[C@H](COP(=O)(O)OP(=O)(O)O)[C@@H](O)[C@H]1O` [ADP], for which the “X-ray crystal structures, 1.75-1.88 A” value in experiment [2] was “We solved the structure of a Dop-Pup complex with a square planar MgFx species bound between ADP and Pup”. In the case of `Nc1ncnc2c1ncn2[C@@H]1O[C@H](COP(=O)(O)OP(=O)(O)CP(=O)(O)O)[C@@H](O)[C@H]1O` [AMP-PCP], the “X-ray crystal structure, 1.65 A” value in experiment [3] was “crystals of the enzyme in complex with the PupQ fragment and AMP-PCP”.
